# Test results as given in patent US9321737B2, “CDK8-CDK19 selective inhibitors and their use in anti-metastatic and chemopreventative methods for cancer” (SENEX BIOTECHNOLOGY INC, priority 2012, dated 2016).
# Experiments:
# MAP4K2 = molecular target: T1, MAP4K2 (Homo sapiens, UniProt Q12851); test: KinomeScan ATP pocket binding inhibition, MAP4K2; conditions: 2,000 nM
# T1 construct: purchased KinomeScan, a division of Ambit Biosciences
# T1 sequence (Q12851 1-820): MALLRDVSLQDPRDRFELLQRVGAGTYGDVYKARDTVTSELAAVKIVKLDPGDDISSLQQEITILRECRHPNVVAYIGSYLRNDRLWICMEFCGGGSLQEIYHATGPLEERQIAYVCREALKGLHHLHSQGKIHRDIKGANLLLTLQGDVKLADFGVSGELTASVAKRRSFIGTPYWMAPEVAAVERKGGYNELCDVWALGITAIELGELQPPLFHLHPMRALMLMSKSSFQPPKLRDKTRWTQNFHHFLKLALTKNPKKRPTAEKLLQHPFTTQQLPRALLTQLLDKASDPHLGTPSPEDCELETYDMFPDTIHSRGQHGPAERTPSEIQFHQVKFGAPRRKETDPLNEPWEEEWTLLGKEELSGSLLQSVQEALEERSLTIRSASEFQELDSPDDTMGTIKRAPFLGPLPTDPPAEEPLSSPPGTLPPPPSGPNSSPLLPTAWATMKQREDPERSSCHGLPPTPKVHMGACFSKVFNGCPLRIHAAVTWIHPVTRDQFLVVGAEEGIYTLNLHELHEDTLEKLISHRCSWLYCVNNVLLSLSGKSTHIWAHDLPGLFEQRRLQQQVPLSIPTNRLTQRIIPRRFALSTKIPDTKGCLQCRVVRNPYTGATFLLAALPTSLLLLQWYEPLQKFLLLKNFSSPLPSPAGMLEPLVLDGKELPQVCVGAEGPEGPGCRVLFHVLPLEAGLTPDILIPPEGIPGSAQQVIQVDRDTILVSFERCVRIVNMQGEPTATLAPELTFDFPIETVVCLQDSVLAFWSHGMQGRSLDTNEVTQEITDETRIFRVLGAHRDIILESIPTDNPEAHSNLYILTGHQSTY
# Excerpt: (§1) (16) The results of this analysis are presented in FIGS. 6A-B in the form of an evolutionary dendrogram of the kinase family, where kinase inhibition is represented by red circles, the size of which represents the magnitude of the inhibition.
# MDA-MB-468 [1] = test: MDA-MB-468 TNBC xenograft model; type: in vivo, female nude mice; conditions: 40 mg/kg Senexin B daily i.p.; 4 mg/kg doxorubicin two injections two weeks apart
# Protocol: Female nude mice were inoculated with MDA-MB-468 cells, and once palpable tumors were formed, mice were randomized into 4 groups, treated daily i.p. with vehicle alone (n=12), 40 mg/kg Senexin B, two injections with 4 mg/kg doxorubicin two weeks apart, or doxorubicin combined with Senexin B (n=8 in each of the latter groups).
# [2] = Pharmacokinetics in rat plasma; type: in vivo; conditions: i.p. 40 mg/kg
# CDK8 [3] = molecular target: T2, CDK8 (Homo sapiens, UniProt P49336); test: KinomeScan ATP pocket binding inhibition, CDK8; conditions: 2,000 nM
# T2 sequence (P49336 whole entry): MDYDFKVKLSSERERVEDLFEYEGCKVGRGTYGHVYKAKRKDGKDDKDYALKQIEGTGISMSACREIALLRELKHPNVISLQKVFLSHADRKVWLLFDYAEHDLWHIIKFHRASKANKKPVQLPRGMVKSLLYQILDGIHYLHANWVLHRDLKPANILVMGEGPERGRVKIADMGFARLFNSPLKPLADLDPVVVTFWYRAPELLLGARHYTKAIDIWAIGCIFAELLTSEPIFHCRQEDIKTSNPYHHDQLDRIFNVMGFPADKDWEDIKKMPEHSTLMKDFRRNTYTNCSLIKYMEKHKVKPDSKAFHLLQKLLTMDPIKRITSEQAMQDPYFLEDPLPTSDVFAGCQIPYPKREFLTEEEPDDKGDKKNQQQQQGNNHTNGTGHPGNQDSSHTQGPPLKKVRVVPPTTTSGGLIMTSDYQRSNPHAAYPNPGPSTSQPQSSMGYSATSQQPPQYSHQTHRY
# Excerpt: as §1
# [4] = Pharmacokinetics in mouse plasma (gavage); type: in vivo; conditions: mice, gavage 100 mg/kg
# [5] = system: A549 human lung xenograft tumors; test: Pretreatment before A549 xenograft injection; type: in vivo, CB-17 SCID mice; conditions: 5 daily i.p. 40 mg/kg before s.c. A549 injection; p<0.007 on days 21 and 24
# Protocol: Mice were then injected s.c. with 1×10^6 cells of human A549 lung cancer cell line; the tumor cells were injected in the afternoon of the same day when the last dose of treatment was administered in the morning. Starting from day 7 after tumor injection, mice were monitored for tumor formation twice a week, with 3-4 day intervals, until day 24 after tumor injection; tumor volumes were calculated via caliper measurements. By the end of the study, all the mice in both groups developed measurable tumors. […] Each point represents mean and standard deviation of tumor volume within a group of 10 mice.
# Water solubility = type: physicochemical; conditions: 40° C., 30 min, no pellet after centrifugation
# Protocol: The compounds were also tested for solubility in 20% propylene glycol and in water, as follows. Compounds (dry powder) were dissolved in 20% propylene glycol at a concentration of 1 mM at a temperature of 40° C. with occasional vortexing. After 30 min, the solution was centrifuged at 10,000×g for 5 min. Serial dilutions of the cleared supernatant were prepared and used to measure the compound concentrations through OD reading, relative to 1 μM standard solution of the same compound. The results of the measurement were expressed as % solubility of the compound at 1 mM in 20% propylene glycol. To determine water solubility, the compounds (dry powder) were initially dissolved in water at a concentration of 100 mM at a temperature of 40° C. with occasional vortexing. After 30 min, the solution was centrifuged at 10,000×g for 5 min, and the formation of an insoluble pellet was monitored. At subsequent steps, the compound was attempted to be dissolved at lower concentrations, until no pellet was observed after centrifugation, indicating complete solution of the compound.
# CDK8 [6] = molecular target: T2, CDK8; test: In vitro CDK8 kinase activity inhibition (ProQinase assay kit); conditions: read-out: IC50, inhibition of CDK8 kinase activity, different assays
# [7] = system: β-catenin-dependent TOPFLASH promoter in HCT116 colon carcinoma cells; test: β-catenin-dependent TOPFLASH luciferase assay; type: cell-based; conditions: different concentrations
# Protocol: The effect of different concentrations of Senexin B on luciferase expression from β-catenin-dependent TOPFLASH promoter in HCT116 colon carcinoma cells was measured as described in US Patent Publication 20120071477 for Senexin A (SNX2-1-53).
# MDA-MB-468 [8] = test: Breast carcinoma cell growth, MTT, MDA-MB-468; type: cell-based; conditions: five days
# CDK19 = CDK19 (Homo sapiens, UniProt Q9BWU1); test: KinomeScan ATP pocket binding inhibition, CDK19; conditions: 2,000 nM
# CDK19, sequence (Q9BWU1 whole entry): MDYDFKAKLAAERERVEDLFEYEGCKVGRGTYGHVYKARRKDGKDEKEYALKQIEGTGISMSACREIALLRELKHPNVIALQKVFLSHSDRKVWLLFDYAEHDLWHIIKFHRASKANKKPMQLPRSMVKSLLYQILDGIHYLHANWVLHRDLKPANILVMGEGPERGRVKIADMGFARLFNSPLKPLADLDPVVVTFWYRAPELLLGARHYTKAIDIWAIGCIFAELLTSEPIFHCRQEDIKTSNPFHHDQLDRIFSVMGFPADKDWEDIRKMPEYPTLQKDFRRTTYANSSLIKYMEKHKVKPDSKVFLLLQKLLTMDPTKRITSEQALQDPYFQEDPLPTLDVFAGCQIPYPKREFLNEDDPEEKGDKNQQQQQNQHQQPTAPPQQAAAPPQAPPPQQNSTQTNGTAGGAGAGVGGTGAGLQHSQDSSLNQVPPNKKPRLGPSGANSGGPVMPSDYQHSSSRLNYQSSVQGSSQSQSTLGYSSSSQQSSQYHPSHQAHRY
# Excerpt: as §1
# MDA-MB-157 = test: Breast carcinoma cell growth, MTT, MDA-MB-157; type: cell-based; conditions: five days
# CDK8 [9] = molecular target: T2, CDK8; test: Kd determination, CDK8; type: binding; conditions: in duplicate
# Excerpt: as §1
# [10] = 12-day animal toxicity study; type: in vivo, Balb/c mice; conditions: 40 mg/kg i.p.
structure (smiles),measurement,setting,value
CN1CCN(C(=O)c2ccc3cc(CCNc4ncnc5ccc(C#N)cc45)ccc3c2)CC1 [SNX2-1-165],% inhibition of MAP4K2,MAP4K2,69%
same,tumor growth (tumor volumes after 30 days of treatment),MDA-MB-468 [1],significantly slowed down the tumor growth
same,area under the curve (AUC),[2],14100 ng·h/mL
same,% inhibition of CDK8,CDK8 [3],97.8%
same,oral availability,[4],orally available
same,peak plasma concentrations,[4],~50 µM
same,tumor growth (tumor volume) after pretreatment,[5],significantly slower tumor growth
same,Water Solubility,Water solubility,≥ 50 mM
same,Water Solubility,Water solubility; listed as 165,Soluble at 50 mM
same,IC50,CDK8 [6],24 to 50 nM
same,luciferase expression from TOPFLASH promoter (β-catenin activity),[7],concentration-dependent inhibition
same,"growth inhibition, MDA-MB-468",MDA-MB-468 [8],dose-dependent growth inhibition
same,% inhibition of CDK19,CDK19,98.6%
same,"growth inhibition, MDA-MB-157",MDA-MB-157,dose-dependent growth inhibition
same,Kd,CDK8 [9],140 nM
same,body weight gains at end of study,"[10]; 5 daily doses, 2-day break",indistinguishable from the carrier-treated mice
same,decrease in lymphocytes (blood counts),[10]; 12-day study,~25%
same,spleen weight decrease,[10]; 12-day study,~20%
same,"blood counts, other cell types","[10]; 12-day study, relative to control mice",no changes
